Tested on: 855422-203-R-J1-PDC complex spheroid viability
Experiment: Anticancer human tumor 855422-203-R-J1-PDC patient-derived bladder carcinoma cell line growth inhibition [POLQ]
Conditions: for IC50: curve of first compound; for viability, T/C: stronger effect = lower value
Method in brief: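 Patient-derived tumour cells were co-cultured with HUVEC and mesenchymal stem cells as multicellular spheroids at 37 °C. They were treated with POLQ inhibitors (novobiocin, ART-558, RP6685) alone or combined with other agents. Top concentrations were at or near clinical Cmax (otherwise 10 microM; SN-38 at 1 microM), decreasing in half-log steps.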

[1] = second compound 0.0316 µM, first compound 0.0316 µM
[2] = second compound 0.0316 µM, first compound 0.1 µM
[3] = second compound 0.0316 µM, first compound 0.316 µM
[4] = second compound 0.0316 µM, first compound 1 µM
[5] = second compound 0.0316 µM, first compound 3.16 µM
[6] = second compound 0.0316 µM, first compound 10 µM
[7] = second compound 0.1 µM, first compound 0.0316 µM
[8] = second compound 0.1 µM, first compound 0.1 µM
[9] = second compound 0.1 µM, first compound 0.316 µM
[10] = second compound 0.1 µM, first compound 1 µM
[11] = second compound 0.1 µM, first compound 3.16 µM
[12] = second compound 0.1 µM, first compound 10 µM
[13] = second compound 0.316 µM, first compound 0.0316 µM
[14] = second compound 0.316 µM, first compound 0.1 µM
[15] = second compound 0.316 µM, first compound 0.316 µM
[16] = second compound 0.316 µM, first compound 1 µM
[17] = second compound 0.316 µM, first compound 3.16 µM
[18] = second compound 0.316 µM, first compound 10 µM
[19] = second compound 1 µM, first compound 0.0316 µM
[20] = second compound 1 µM, first compound 0.1 µM
[21] = second compound 1 µM, first compound 0.316 µM
[22] = second compound 1 µM, first compound 1 µM
[23] = second compound 1 µM, first compound 3.16 µM
[24] = second compound 1 µM, first compound 10 µM
[25] = second compound 3.16 µM, first compound 0.0316 µM
[26] = second compound 3.16 µM, first compound 0.1 µM
[27] = second compound 3.16 µM, first compound 0.316 µM
[28] = second compound 3.16 µM, first compound 1 µM
[29] = second compound 3.16 µM, first compound 3.16 µM
[30] = second compound 3.16 µM, first compound 10 µM
[31] = second compound 10 µM, first compound 0.0316 µM
[32] = second compound 10 µM, first compound 0.1 µM
[33] = second compound 10 µM, first compound 0.316 µM
[34] = second compound 10 µM, first compound 1 µM
[35] = second compound 10 µM, first compound 3.16 µM
[36] = second compound 10 µM, first compound 10 µM
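Note: spheroids exposed to compounds for seven days before readout.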

`CNCc1ccc(-c2[nH]c3cc(F)cc4c3c2CCNC4=O)cc1` + Nc1ccc(C#CCN(C(=O)Cc2ncc(C(F)(F)F)cc2C(F)(F)F)c2ccc(F)cc2)nn1 was tested, and the IC50 (second compound 0.0316 µM) was > 10000 nM, the IC50 (second compound 0.1 µM) was > 10000 nM and the IC50 (second compound 0.316 µM) was > 10000 nM. For the same compound, the IC50 (second compound 1 µM) was > 10000 nM, the IC50 (second compound 3.16 µM) was > 10000 nM and the IC50 (second compound 10 µM) was > 10000 nM. The viability, T/C [1] was 94.5%, the viability, T/C [2] was 131% and the viability, T/C [3] was 102%. For the same compound, the viability, T/C [4] was 102%, the viability, T/C [5] was 106% and the viability, T/C [6] was 116%. For the same compound, the viability, T/C [7] was 97.8%, the viability, T/C [8] was 154% and the viability, T/C [9] was 112%. The viability, T/C [10] was 86%, the viability, T/C [11] was 99.2% and the viability, T/C [12] was 115%. It also gave a viability, T/C [13] of 100%, a viability, T/C [14] of 121% and a viability, T/C [15] of 108%. It also gave a viability, T/C [16] of 91.4%, a viability, T/C [17] of 100% and a viability, T/C [18] of 119%. The viability, T/C [19] was 90.9%, the viability, T/C [20] was 115% and the viability, T/C [21] was 91.4%. It also gave a viability, T/C [22] of 104%, a viability, T/C [23] of 118% and a viability, T/C [24] of 112%. It also gave a viability, T/C [25] of 94.9%, a viability, T/C [26] of 119% and a viability, T/C [27] of 101%. The viability, T/C [28] was 97.3%, the viability, T/C [29] was 101% and the viability, T/C [30] was 104%. For the same compound, the viability, T/C [31] was 98.3%, the viability, T/C [32] was 102% and the viability, T/C [33] was 107%. It also gave a viability, T/C [34] of 100%, a viability, T/C [35] of 110% and a viability, T/C [36] of 97.8%.

Work on `COc1cccc(OCCCN)c1-c1cc(Nc2cnc(C#N)cn2)n[nH]1` + Nc1ccc(C#CCN(C(=O)Cc2ncc(C(F)(F)F)cc2C(F)(F)F)c2ccc(F)cc2)nn1 yielded an IC50 (second compound 0.0316 µM) of 27.7 nM, an IC50 (second compound 0.1 µM) of 31.9 nM and an IC50 (second compound 0.316 µM) of 31.5 nM. The IC50 (second compound 1 µM) was 25.2 nM, the IC50 (second compound 3.16 µM) was 24.1 nM and the IC50 (second compound 10 µM) was 24 nM. The viability, T/C (second compound 0.0316 µM, first compound 0.00316 µM) was 111%, the viability, T/C (second compound 0.0316 µM, first compound 0.01 µM) was 197% and the viability, T/C [1] was 36.6%. It also gave a viability, T/C [2] of 11.9%, a viability, T/C [3] of 7.2% and a viability, T/C [4] of 6.13%. The viability, T/C (second compound 0.1 µM, first compound 0.00316 µM) was 106%, the viability, T/C (second compound 0.1 µM, first compound 0.01 µM) was 196% and the viability, T/C [7] was 50.3%. The viability, T/C [8] was 10.7%, the viability, T/C [9] was 6.14% and the viability, T/C [10] was 5.3%. It also gave a viability, T/C (second compound 0.316 µM, first compound 0.00316 µM) of 113%, a viability, T/C (second compound 0.316 µM, first compound 0.01 µM) of 176% and a viability, T/C [13] of 49.8%. It also gave a viability, T/C [14] of 11.1%, a viability, T/C [15] of 7.07% and a viability, T/C [16] of 6.94%. It also gave a viability, T/C (second compound 1 µM, first compound 0.00316 µM) of 105%, a viability, T/C (second compound 1 µM, first compound 0.01 µM) of 148% and a viability, T/C [19] of 31.3%. The viability, T/C [20] was 9.99%, the viability, T/C [21] was 7.86% and the viability, T/C [22] was 7.5%. For the same compound, the viability, T/C (second compound 3.16 µM, first compound 0.00316 µM) was 107%, the viability, T/C (second compound 3.16 µM, first compound 0.01 µM) was 178% and the viability, T/C [25] was 21.6%. For the same compound, the viability, T/C [26] was 15.9%, the viability, T/C [27] was 7.71% and the viability, T/C [28] was 6.25%. It also gave a viability, T/C (second compound 10 µM, first compound 0.00316 µM) of 100%, a viability, T/C (second compound 10 µM, first compound 0.01 µM) of 161% and a viability, T/C [31] of 24.6%. It also gave a viability, T/C [32] of 8%, a viability, T/C [33] of 9.72% and a viability, T/C [34] of 7.4%.

For `Nc1ccn(C2OC(CO)C(O)C2(F)F)c(=O)n1` (stereo not drawn) + Nc1ccc(C#CCN(C(=O)Cc2ncc(C(F)(F)F)cc2C(F)(F)F)c2ccc(F)cc2)nn1, the IC50 (second compound 0.0316 µM) was 61.9 nM, the IC50 (second compound 0.1 µM) was 62.5 nM and the IC50 (second compound 0.316 µM) was 82.3 nM. For the same compound, the IC50 (second compound 1 µM) was 91.2 nM, the IC50 (second compound 3.16 µM) was 207 nM and the IC50 (second compound 10 µM) was 447 nM. It also gave a viability, T/C [1] of 93.6%, a viability, T/C [2] of 18.9% and a viability, T/C [3] of 17.6%. The viability, T/C [4] was 13.8%, the viability, T/C [5] was 11% and the viability, T/C [6] was 6.83%. The viability, T/C [7] was 99.3%, the viability, T/C [8] was 15.9% and the viability, T/C [9] was 18.2%. The viability, T/C [10] was 14.1%, the viability, T/C [11] was 12.3% and the viability, T/C [12] was 9.34%. The viability, T/C [13] was 148%, the viability, T/C [14] was 29.9% and the viability, T/C [15] was 16%. The viability, T/C [16] was 18.6%, the viability, T/C [17] was 11.3% and the viability, T/C [18] was 8.21%. It also gave a viability, T/C [19] of 136%, a viability, T/C [20] of 42.2% and a viability, T/C [21] of 16.8%. It also gave a viability, T/C [22] of 14.5%, a viability, T/C [23] of 11.3% and a viability, T/C [24] of 10.8%. For the same compound, the viability, T/C [25] was 118%, the viability, T/C [26] was 103% and the viability, T/C [27] was 19.4%. The viability, T/C [28] was 16.3%, the viability, T/C [29] was 14.8% and the viability, T/C [30] was 11.8%. The viability, T/C [31] was 105%, the viability, T/C [32] was 210% and the viability, T/C [33] was 63.6%. The viability, T/C [34] was 23%, the viability, T/C [35] was 18.2% and the viability, T/C [36] was 14.1%.

In the case of `O=C(c1cc(Cc2n[nH]c(=O)c3ccccc23)ccc1F)N1CCN(C(=O)C2CC2)CC1` + Nc1ccc(C#CCN(C(=O)Cc2ncc(C(F)(F)F)cc2C(F)(F)F)c2ccc(F)cc2)nn1, the IC50 (second compound 0.0316 µM) is reported as > 10000 nM, the IC50 (second compound 0.1 µM) is reported as > 10000 nM and the IC50 (second compound 0.316 µM) is reported as > 10000 nM. For the same compound, the IC50 (second compound 1 µM) was > 10000 nM, the IC50 (second compound 3.16 µM) was > 10000 nM and the IC50 (second compound 10 µM) was > 10000 nM. The viability, T/C [1] was 97.5%, the viability, T/C [2] was 126% and the viability, T/C [3] was 104%. It also gave a viability, T/C [4] of 98%, a viability, T/C [5] of 94% and a viability, T/C [6] of 150%. For the same compound, the viability, T/C [7] was 95%, the viability, T/C [8] was 132% and the viability, T/C [9] was 113%. The viability, T/C [10] was 90.8%, the viability, T/C [11] was 125% and the viability, T/C [12] was 119%. The viability, T/C [13] was 91.6%, the viability, T/C [14] was 128% and the viability, T/C [15] was 96.9%. For the same compound, the viability, T/C [16] was 98.8%, the viability, T/C [17] was 129% and the viability, T/C [18] was 162%. The viability, T/C [19] was 98.7%, the viability, T/C [20] was 113% and the viability, T/C [21] was 105%. For the same compound, the viability, T/C [22] was 109%, the viability, T/C [23] was 121% and the viability, T/C [24] was 163%. It also gave a viability, T/C [25] of 97.6%, a viability, T/C [26] of 114% and a viability, T/C [27] of 100%. It also gave a viability, T/C [28] of 107%, a viability, T/C [29] of 105% and a viability, T/C [30] of 134%. It also gave a viability, T/C [31] of 99.4%, a viability, T/C [32] of 102% and a viability, T/C [33] of 123%. It also gave a viability, T/C [34] of 99.6%, a viability, T/C [35] of 113% and a viability, T/C [36] of 109%.
